Results from patent US8501806B2, “Methods for preventing or reducing colon carcinogenesis” (Nogra Pharma Limited, priority 2008, dated 2013).

Key:
fibroblasts = experiment: Proliferation of normal fibroblasts; assay type: cell-based; conditions: FIG. 4B; 48 hours
HCT-116 cells = experiment: Cell cycle distribution (BrdU/PI flow cytometry); assay type: cell-based, human; conditions: FIG. 5; increasing concentrations, 24 hours
Protocol: For analysis of cell cycle distribution, serum-starved cells were cultured in medium containing 0.05% BSA and the desiderated concentrations of compound 14 for 24 hours. Cells were pulsed with 10 μM BrdU for 60 minutes, then collected, washed twice with PBS 1×, fixed in 70% cold ethanol, and stored at −20° C. for at least 3 hours. Afterwards, cells were washed twice with PBS 1×, denatured in 2M HCl and stained with anti-BrdU monoclonal antibody (Immunotech, Marseille, France) followed by FITC-conjugated secondary anti-mouse IgG (Molecular Probes/Invitrogen, Milan, Italy). After staining with 100 μg/ml PI, cells were analyzed by flow cytometry. […] HCT-116 cells were treated with or without compound 14 for 24 hours. Values in FIG. 5 are the percentages of cells in the different phases of cell cycle and indicate mean±SD of 4 experiments (untreated vs compound 14-treated cells * P<0.04, ** P<0.001). Right insets show representative dot-plots of the cell cycle distribution.

4T1 cells = experiment: CFSE cell proliferation assay, 4T1 cells; assay type: cell-based, BALB/c; conditions: FIG. 9; graded doses, 24 hours
Protocol: All reagents were from Sigma-Aldrich (Milan, Italy), unless specified. Compound 14 was dissolved as a 25 mM stock solution in culture medium. 4T1 cells, a 6-thioguanine-resistant cell line derived from a BALB/c mammary carcinoma which spontaneously metastasizes to both the lung and liver, were obtained by ATCC and maintained at 37° C. in a humidified atmosphere of 5% CO2 in Dulbecco's modified Eagle's Medium (DMEM) supplemented with 10% inactivated fetal bovine serum (FBS) and 1% penicillin-streptomycin. For cell growth assays, serum-starved 4T1 cells were labeled with carboxyfluorescein diacetate succinimidyl ester (CFSE) (Invitrogen, Milan Italy) at 37° C. for 30 minutes, and then treated with increasing doses of compound 14. After 24 hours, cells were incubated with 5 μg/ml of propidium iodide (PI) for 15 minutes, at 4° C. CFSE and/or PI-positive cells were determined by flow cytometry (Becton Dickinson, Milan, Italy)

CT26-derived tumors = experiment: In vivo formation of CT26-derived tumors; design: species or system Balb/c mice; conditions: for mice with CT26-derived macroscopic tumors: fourteen days after injection (control 10/10)
Protocol: CT26 cells (1×10^5 cells in 300 μl PBS 1×) were injected subcutaneously into the flank of Balb/c mice, whose fur was shaved and depilated. Five groups of 10 mice each were implanted with CT26. The first group received daily subcutaneously 300 μl PBS (control), the remaining groups received daily subcutaneously compound 14 at a final dose of 1, 4, 8, or 12 mg/kg/mouse dissolved in 300 μl PBS. Both compound 14 and PBS were administered starting on day 3. Further experimentation was performed to assess whether compound 14 had anti-cancer activity when administered systemically. To this end, 3 days after the CT26 inoculation, mice were injected with PBS or compound 14 (8 mg/kg/mouse) intraperitoneally. As a control, mice received subcutaneously compound 14 (8 mg/kg/mouse). Mice were monitored over the time for weight loss. After 2 weeks, mice were sacrificed, tumors were photographed, then excised and their mass calculated according to the following formula: ½×(short diameter)×(long diameter)×(height). Total extracts were prepared from xenografts and analyzed for cyclin D1 protein content by Western blotting using a commercially available antibody (Santa Cruz Biotechnology). To examine whether compound 14 was able to reduce the growth of established CRC xenografts, Balb/c mice were implanted with CT26 as described above. After 2 weeks, mice with similar tumor size, determined by caliper measurements, were divided into three groups of 8 mice each. The first group received daily subcutaneously 300 μl PBS (control), the second group received daily subcutaneously 5-ASA (80 mg/kg) dissolved in 300 μl PBS. The last group received daily subcutaneously compound 14 (8 mg/kg) dissolved in 300 μl PBS. Mice were monitored over the time for weight loss. After 2 weeks, mice were sacrificed, tumors were photographed, then excised and their mass calculated as described above. Studies were approved by the Local Ethical Committee.

CDK2 = CDK2 phosphorylation by Western blotting; assay type: cell-based, human; conditions: FIG. 6, HCT-116 cells
Excerpt: One of 4 representative Western blots is shown.

4T1-derived metastasis = experiment: 4T1 spontaneous metastasis, clonogenic metastasis assay; assay type: in vivo, Balb/c mice; conditions: FIG. 11; daily i.p. 8 mg/kg/mouse, sacrificed at day 35
Protocol: Spontaneous metastases were measured by adapting methods described previously by Pulaski and Ostrand-Rosenberg (Cancer Research 58, 1486-1493, 1998). 4T1 tumor cells (1×10^5 cells in 100 μl 1×PBS) were injected s.c. in the abdominal mammary gland of 8-10 weeks old female Balb/c mice. Three days after 4T1 injection, mice received daily i.p. administration of compound 14 (8 mg/kg/mouse) or PBS (control). Mice were monitored over the time for weight loss and sacrificed at day 35. Lungs and liver were removed from each mouse, and treated as follows: liver samples were finely minced and digested with an enzyme solution containing 1×PBS, 0.01% BSA, 1 mg/ml hyaluronidase, and 1 mg/ml collagenase type I for 20 min at 37° C. on a platform rocker; lung samples were finely minced and digested with an enzyme cocktail containing 1×PBS, 1 mg/ml collagenase type IV and 10 units/ml elastase for 1 h at […] on a rotating wheel. At the end, samples were filtered through 70 μm nylon cell strainers and washed three times with 1×PBS. The resulting cell preparations were resuspended and plated neat or serially diluted in 10-cm tissue culture dishes in 20 ml of medium containing 60 μM 6-thioguanine. Suspensions were incubated in 10% CO2-air atmosphere at 37° C. for clonogenic growth. […] Total colony-forming cells were calculated on a per-organ basis. […]

## COc1ccc(N)cc1C(=O)NO [compound 14, 2-methoxy-5-amino-N-hydroxybenzamide]
fibroblasts
  proliferation of normal fibroblasts: did not affect
HCT-116 cells
  cells in G0/G1 phase: progressive accumulation
  cells with S and G2/M phase DNA content: decrease
4T1 cells
  in vitro proliferation of 4T1 cells: dose-dependently inhibited
CT26-derived tumors; FIG. 7A, daily subcutaneously 1, 4, 8, or 12 mg/kg/mouse
  in-vivo formation of CT26-derived tumors: dose-dependently reduces
CT26-derived tumors; FIG. 7B, intra-peritoneally 8 mg/kg/mouse
  CT26-derived xenografts: inhibits
CT26-derived tumors; FIG. 7C, Western blotting, two different doses
  cyclin D1 protein expression in xenografts: reduced
CT26-derived tumors; during the study, treated groups
  body weight loss: No body weight loss
CT26-derived tumors; given subcutaneously or intraperitoneally
  tumor mass in comparison to controls: significant decrease
CT26-derived tumors; intraperitoneally
  mice with CT26-derived macroscopic tumors: 7/10
CT26-derived tumors; mice receiving compound
  histological analysis of liver, kidney, spleen, and colon: no morphological alteration
CT26-derived tumors; mouse, in vivo
  survival: all animals survived
CT26-derived tumors; subcutaneously
  mice with CT26-derived macroscopic tumors: 5/10
CDK2
  CDK2 phosphorylation on threonin 14 and tyrosine 15: enhanced phosphorylation
4T1-derived metastasis
  number of liver metastatic tumor cells: reduction
  number of lung metastatic tumor cells: reduction
